Laboratory results: paper PMC10673995, “Discovery of a novel cardiac-specific myosin modulator using artificial intelligence-based virtual screening” (Nature Communications, 2023)
“And” between values parts separate entries of the source, which are not always exact repeats. Identical values can stand only once.

Biological target: bovine cardiac myosin S1 (Bos taurus, UniProt Q9BE39)
Assay: mant-ATP chase single nucleotide turnover, myosin S1;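 note: 0.4 µM S1 preloaded with equimolar mant-ATP, chased by 2 mM ATP, mant fluorescence (ex 360, em 450 nm) read each second over 15 min at 25 °C, biexponential fit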
Details: for Representative Traces (mant-ATP chase, normalised signal): representative trace, sheet Figure 3a
[1] = Beta-cardiac myosin S1, individual replicates

Sequence of bovine cardiac myosin S1 (Q9BE39 85-778 limits assumed): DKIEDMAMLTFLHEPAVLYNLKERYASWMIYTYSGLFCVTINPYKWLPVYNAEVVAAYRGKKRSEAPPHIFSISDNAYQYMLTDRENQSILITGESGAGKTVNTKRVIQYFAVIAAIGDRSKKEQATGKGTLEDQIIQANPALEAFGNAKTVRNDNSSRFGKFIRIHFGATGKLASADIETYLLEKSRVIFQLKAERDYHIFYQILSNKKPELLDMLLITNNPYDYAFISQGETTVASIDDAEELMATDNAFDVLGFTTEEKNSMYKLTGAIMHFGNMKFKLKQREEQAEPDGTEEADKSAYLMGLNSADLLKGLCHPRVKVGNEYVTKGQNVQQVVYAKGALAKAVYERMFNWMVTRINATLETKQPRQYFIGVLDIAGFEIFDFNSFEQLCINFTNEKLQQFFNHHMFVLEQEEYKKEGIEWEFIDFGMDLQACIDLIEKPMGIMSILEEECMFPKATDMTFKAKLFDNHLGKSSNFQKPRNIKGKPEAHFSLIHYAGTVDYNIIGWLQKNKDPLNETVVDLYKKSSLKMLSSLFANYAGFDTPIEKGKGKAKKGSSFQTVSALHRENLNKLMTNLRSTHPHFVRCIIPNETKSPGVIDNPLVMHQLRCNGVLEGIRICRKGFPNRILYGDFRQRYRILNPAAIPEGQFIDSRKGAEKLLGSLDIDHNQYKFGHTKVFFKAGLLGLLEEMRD
Sequence of bovine cardiac myosin S1 (P85100 whole entry partner): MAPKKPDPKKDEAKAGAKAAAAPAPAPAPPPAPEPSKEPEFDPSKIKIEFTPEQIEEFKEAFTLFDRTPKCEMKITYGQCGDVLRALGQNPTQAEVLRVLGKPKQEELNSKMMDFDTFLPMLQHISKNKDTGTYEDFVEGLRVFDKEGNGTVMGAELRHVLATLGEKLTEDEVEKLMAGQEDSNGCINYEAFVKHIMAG
Description: In contrast to the isolated myosin motors, synthetic thick filaments contain two myosin head domains per molecule connected via their coiled-coil tail.
Chase of mant-ATP loaded cardiac myosin S1 with ATP leads to a decrease in the mant fluorescence intensity which is best described by a bi-exponential decay function with an initial fast phase followed by a second slower phase, corresponding to the so-called disordered (DRX) and super-relaxed state (SRX) of myosin, respectively.
Bovine myosin S1 and synthetic thick filament concentrations were adjusted to 0.4 μmol L^−1 with assay buffer and 40 μL aliquoted into individual wells of a black 384-well plate (Greiner). Mant-ATP (JenaBioscience) was added to each well to a final concentration of 0.4 μmol L^−1 using an automated injector unit in a ClarioStar Plate Reader (BMG LabTech) and the system was allowed to age for 1 min. The chase phase was started by adding a final concentration of 2 mmol L^−1 ATP using a second automated injector unit. Fluorescence intensity from each well was constantly measured for 15 min every 1 sec at 25 °C with the following settings: excitation at 360 nm with a 20 nm bandwidth and emission at 450 nm with a 20 nm bandwidth.

CC(C)n1c(=O)cc(N[C@@H](C)c2ccccc2)[nH]c1=O [Mavacamten]
effect on the rate of the fast DRX phase: no effect | kslow (2 μmol L^-1 Mavacamten or 20 μmol L^-1 F10, control 0.0058 ± 0.0010): 0.0035 ± 0.0002 s⁻¹ | kfast [1]: 0.009858 s⁻¹ and 0.01039 s⁻¹ and 0.07197 s⁻¹ and 0.03575 s⁻¹ and 0.01101 s⁻¹ and 0.01169 s⁻¹ | kslow [1]: 0.00364 s⁻¹ and 0.002861 s⁻¹ and 0.004023 s⁻¹ and 0.004095 s⁻¹ and 0.003004 s⁻¹ and 0.003638 s⁻¹ | slow phase [1]: 82.01% and 63.89% and 87.3% and 56.77% and 56.99% and 79.26% | Representative Traces, normalised fluorescence (t 396 s): 0.2925 | Representative Traces, normalised fluorescence (t 397 s): 0.3426 | Representative Traces, normalised fluorescence (t 398 s): 0.3062 | Representative Traces, normalised fluorescence (t 399 s): 0.3254 | Representative Traces, normalised fluorescence (t 400 s): 0.3408 | Representative Traces, normalised fluorescence (t 401 s): 0.3177 | Representative Traces, normalised fluorescence (t 402 s): 0.2999 | Representative Traces, normalised fluorescence (t 403 s): 0.3192 | Representative Traces, normalised fluorescence (t 404 s): 0.3277 | Representative Traces, normalised fluorescence (t 405 s): 0.3461 | Representative Traces, normalised fluorescence (t 406 s): 0.3076 | Representative Traces, normalised fluorescence (t 407 s): 0.3064 | Representative Traces, normalised fluorescence (t 408 s): 0.3235 | Representative Traces, normalised fluorescence (t 409 s): 0.3324 | Representative Traces, normalised fluorescence (t 411 s): 0.3126 | Representative Traces, normalised fluorescence (t 412 s): 0.2865 | Representative Traces, normalised fluorescence (t 413 s): 0.2993 | Representative Traces, normalised fluorescence (t 414 s): 0.3256 | Representative Traces, normalised fluorescence (t 415 s): 0.2791 | Representative Traces, normalised fluorescence (t 416 s): 0.3071 | Representative Traces, normalised fluorescence (t 417 s): 0.3285 | Representative Traces, normalised fluorescence (t 418 s): 0.3567 | Representative Traces, normalised fluorescence (t 419 s): 0.2951 | Representative Traces, normalised fluorescence (t 420 s): 0.2958 | Representative Traces, normalised fluorescence (t 421 s): 0.2771 | Representative Traces, normalised fluorescence (t 422 s): 0.3283 | Representative Traces, normalised fluorescence (t 423 s): 0.3329 | Representative Traces, normalised fluorescence (t 424 s): 0.3402 | Representative Traces, normalised fluorescence (t 425 s): 0.3675 | Representative Traces, normalised fluorescence (t 426 s): 0.3241 | Representative Traces, normalised fluorescence (t 427 s): 0.3018 | Representative Traces, normalised fluorescence (t 429 s): 0.3105 | Representative Traces, normalised fluorescence (t 430 s): 0.2835 | Representative Traces, normalised fluorescence (t 431 s): 0.3652 | Representative Traces, normalised fluorescence (t 432 s): 0.276 | Representative Traces, normalised fluorescence (t 433 s): 0.3282 | Representative Traces, normalised fluorescence (t 434 s): 0.3046 | Representative Traces, normalised fluorescence (t 436 s): 0.327 | Representative Traces, normalised fluorescence (t 438 s): 0.2936 | Representative Traces, normalised fluorescence (t 439 s): 0.2402 | Representative Traces, normalised fluorescence (t 440 s): 0.312 | Representative Traces, normalised fluorescence (t 442 s): 0.3011 | Representative Traces, normalised fluorescence (t 443 s): 0.3298 | Representative Traces, normalised fluorescence (t 444 s): 0.251 | Representative Traces, normalised fluorescence (t 445 s): 0.2991 | Representative Traces, normalised fluorescence (t 448 s): 0.3473 | Representative Traces, normalised fluorescence (t 449 s): 0.3057 | Representative Traces, normalised fluorescence (t 450 s): 0.2886 | Representative Traces, normalised fluorescence (t 451 s): 0.2859 | Representative Traces, normalised fluorescence (t 452 s): 0.29 | Representative Traces, normalised fluorescence (t 453 s): 0.2756 | Representative Traces, normalised fluorescence (t 454 s): 0.2575 | Representative Traces, normalised fluorescence (t 455 s): 0.3029 | Representative Traces, normalised fluorescence (t 457 s): 0.3415 | Representative Traces, normalised fluorescence (t 458 s): 0.2853 | Representative Traces, normalised fluorescence (t 459 s): 0.3237 | Representative Traces, normalised fluorescence (t 460 s): 0.3029 | Representative Traces, normalised fluorescence (t 461 s): 0.3217 | Representative Traces, normalised fluorescence (t 462 s): 0.3036 | Representative Traces, normalised fluorescence (t 463 s): 0.347 | Representative Traces, normalised fluorescence (t 464 s): 0.2897 | Representative Traces, normalised fluorescence (t 465 s): 0.2531 | Representative Traces, normalised fluorescence (t 466 s): 0.2878 | Representative Traces, normalised fluorescence (t 467 s): 0.2939 | Representative Traces, normalised fluorescence (t 468 s): 0.2524 | Representative Traces, normalised fluorescence (t 469 s): 0.272 | Representative Traces, normalised fluorescence (t 470 s): 0.2865 | Representative Traces, normalised fluorescence (t 471 s): 0.2593 | Representative Traces, normalised fluorescence (t 472 s): 0.2417 | Representative Traces, normalised fluorescence (t 473 s): 0.3026 | Representative Traces, normalised fluorescence (t 474 s): 0.305 | Representative Traces, normalised fluorescence (t 475 s): 0.2893 | Representative Traces, normalised fluorescence (t 476 s): 0.2207 | Representative Traces, normalised fluorescence (t 477 s): 0.2579 | Representative Traces, normalised fluorescence (t 479 s): 0.2507 | Representative Traces, normalised fluorescence (t 481 s): 0.3039 | Representative Traces, normalised fluorescence (t 482 s): 0.2976 | Representative Traces, normalised fluorescence (t 483 s): 0.3557 | Representative Traces, normalised fluorescence (t 484 s): 0.2911 | Representative Traces, normalised fluorescence (t 485 s): 0.3282 | Representative Traces, normalised fluorescence (t 486 s): 0.3063 | Representative Traces, normalised fluorescence (t 487 s): 0.301 | Representative Traces, normalised fluorescence (t 489 s): 0.3448 | Representative Traces, normalised fluorescence (t 490 s): 0.2903 | Representative Traces, normalised fluorescence (t 491 s): 0.2724 | Representative Traces, normalised fluorescence (t 492 s): 0.2681 | Representative Traces, normalised fluorescence (t 493 s): 0.2418 | Representative Traces, normalised fluorescence (t 494 s): 0.2422 | Representative Traces, normalised fluorescence (t 495 s): 0.2809 | Representative Traces, normalised fluorescence (t 496 s): 0.2322 | Representative Traces, normalised fluorescence (t 498 s): 0.212 | Representative Traces, normalised fluorescence (t 499 s): 0.2038 | Representative Traces, normalised fluorescence (t 500 s): 0.275 | Representative Traces, normalised fluorescence (t 501 s): 0.2793 | Representative Traces, normalised fluorescence (t 502 s): 0.2398 | Representative Traces, normalised fluorescence (t 503 s): 0.2758 | Representative Traces, normalised fluorescence (t 504 s): 0.2833 | Representative Traces, normalised fluorescence (t 505 s): 0.2324 | Representative Traces, normalised fluorescence (t 506 s): 0.2749 | Representative Traces, normalised fluorescence (t 507 s): 0.3022 | Representative Traces (mant-ATP chase, normalised signal) (t = 796 s): 0.1415 | Representative Traces (mant-ATP chase, normalised signal) (t = 797 s): 0.08266
